Results reported in patent US12138369B2, “Magnetically-activated coating for treating biofilms, and associated systems and methods” (priority 2016, dated 2024).
Structures can show the parent of a compound that is named as a salt.

How the values were obtained:
[1] = test system: dispersed planktonic bacteria (Pseudomonas aeruginosa PAO1); assay: Optical density measurements of planktonic bacteria dispersed from biofilm; assay type: cell-based
Protocol: Optical Density Measurements of Planktonic Bacteria: The planktonic bacteria that had escaped the biofilm via dispersion after the thermal treatment were optically observed to better understand the biofilm's dispersion post-thermal treatment while antibiotics were still present. To estimate the free-swimming bacteria following the antibiotic treatment, the optical density (BioTek Gen5 Microplate Reader, Winooski, Vt., USA) at 600 nm was measured for each well in the second challenge plate. The negative controls in the challenge plate contained only TSB and were used to calculate an average background.
Statistical Analysis: The statistical analysis of both the planktonic optical density reads and the logarithmic CFU counts were reported via their arithmetic mean and standard deviation. […] Statistical analysis was performed in GraphPad Prism 7 using the two-way ANOVA with a confidence interval of 95%.

[2] = test system: Pseudomonas aeruginosa PAO1 biofilms; assay: MBEC assay: antibiotic exposure with or without thermal shock, biofilm enumeration; assay type: cell-based; conditions: for viable biofilm bacteria after combined treatment: 1 min thermal shock; for effect on biofilm populations: higher concentrations, antibiotic on its own, cannot reliably eliminate
Protocol: Biofilm Growth: Cryogenically preserved Pseudomonas aerugiona PAO1 (15692, American Type Culture Collection, Manassas, Va.) was thawed and streaked on an agar plate (Difco Nutrient Agar, Sparks, Md., USA). The agar plates were inverted and incubated at 37° C. for 24 hours. An inoculum was made by suspending two colony forming units (CFUs) from the agar plate in five milliliters of sterile tryptic soy broth (TSB, BD Bacto, Sparks, Md., USA) made as directed and incubated at 37° C. for 24 hours, achieving an average concentration of 2.12×109±0.07×10^9 CFU/mL. One milliliter of inoculum was then diluted into 15 mL TSB and mixed gently. One hundred fifty microliters of the diluted mixture was then placed into each well of the 96-well plate, except for the negative control wells which received 150 μL of TSB. The plate was part of an MBEC™ assay (Innovotech, Edmonton, AB, Canada) in which a corresponding array of 96 pegs protrudes from the plate lid into the wells, providing a convenient array of substrates for biofilm growth which are then readily transferred to new wells (Harrison et al. 2010). The peg lid was placed onto the 96-well plate then sealed using Parafilm and placed on an orbital shaker table (VWR 1000, 15 mm orbit, Thorofare, N.J., USA) at 160 rpm and incubated at 37° C. for 24 hours.
Antibiotic Preparation: A stock of 5 mg/mL ciprofloxacin in sterile, de-ionized water was prepared with ciprofloxacin hydrochloride (MP Biomedicals, Santa Ana, Calif., USA) and mixed thoroughly. Tobramycin stock was made in a similar fashion by mixing 5 mg/mL tobramycin sulfate salt (Sigma-Aldrich, St. Louis, Mo., USA) in sterile, de-ionized water. Erythromycin was obtained from MP Biomedicals and the stock was prepared by mixing 5 mg/mL erythromycin into ethanol. Each antibiotic mixture was then filter sterilized through a […] PES membrane sterile filter (Millex®GP filter unit) and stored at 2° C. Each antibiotic was then diluted from the stock solution into sterile TSB at an array of concentrations in a 96-well challenge plate used that day.
Antibiotic Exposure: After 24 hr of growth, the array of biofilm-covered pegs was transferred into a 96-well rinse plate (Costar® 96 well flat bottom cell culture, Corning Incorporated, NY, USA) containing 200 μL/well de-ionized, sterile water at ambient temperature for 2 min to remove bacteria not incorporated in the biofilm. The peg lid was then transferred to a 96-well challenge plate of wells containing 200 μL of various concentrations of ciprofloxacin, tobramycin, or erythromycin diluted in TSB. For the antibiotic experiments without thermal shock the peg lid was exposed to a single challenge plate for 24 hours in an incubator at 37° C. before rinsing again for 2 min in a new rinse plate. The peg lid was then transferred to a recovery plate containing 200 μL/well fresh, sterile TSB for resuspension and enumeration.
Antibiotic and Thermal Exposure: To investigate the combined effect of antibiotics and thermal shock, biofilms cultured and exposed to antibiotics as discussed above were removed from their antibiotic challenge plate after only four hours. They were quickly transferred to a challenge plate with the same array of antibiotic concentrations, preheated to the target temperature by a thermostatted water bath. Temperatures of 37° C., 50° C., 60° C., 70° C., and 80° C. were studied at exposure times of 1, 5, and 30 min. The pegs were left in the heated challenge plate for the desired exposure time, then transferred to a new challenge plate with the same antibiotic concentrations at 37° C. and incubated for the remainder of the total 24 hour antibiotic exposure time. Following 24 total hours of antibiotic exposure time the peg lid was rinsed once again for two minutes in a new rinse plate and placed into a recovery plate for resuspension and enumeration. […]

O=C(O)c1cn(C2CC2)c2cc(N3CCNCC3)c(F)cc2c1=O [Ciprofloxacin, ciprofloxacin hydrochloride]
effect on dispersed planktonic bacteria ([1]; 0.125, 1.0, and 4.0 μg/mL, OD 600 nm): effective against the planktonic bacteria | effect on dispersed planktonic bacteria ([1]; higher two concentrations (1.0, 4.0 μg/mL), regardless of thermal shock): killing off almost all the free-swimming bacteria | effect on biofilms ([2]; 0.125 μg/mL by itself): little effect | reduction of biofilm populations ([2]; 0.125 μg/mL combined with thermal shock at 60° C. for 5 min): five orders of magnitude | reduction of biofilm populations ([2]; 0.125 μg/mL combined with thermal shock at 70° C. for 1 min): five orders of magnitude | viable biofilm bacteria after combined treatment ([2]; 1 μg/mL combined with 70° C.): no viable bacteria | decrease in viable bacteria of biofilms ([2]; 1 μg/mL, regardless of the heating): at least a five-order magnitude decrease | decrease in viable bacteria of biofilms ([2]; 4 μg/mL (bloodstream concentration), regardless of the heating): at least a five-order magnitude decrease | viable biofilm bacteria after combined treatment ([2]; 4 μg/mL combined with 70° C.): no viable bacteria | effect on biofilm populations [2]: significantly reduce biofilm populations

CC[C@H]1OC(=O)[C@H](C)[C@@H](O[C@H]2C[C@@](C)(OC)[C@@H](O)[C@H](C)O2)[C@H](C)[C@@H](O[C@@H]2O[C@H](C)C[C@H](N(C)C)[C@H]2O)[C@](C)(O)C[C@@H](C)C(=O)[C@H](C)[C@@H](O)[C@]1(C)O [Erythromycin, erythromycin]
effect on dispersed planktonic bacteria ([1]; 2 μg/mL): no discernible effect | effect on dispersed planktonic bacteria ([1]; 64 μg/mL, even without thermal shock): significant reduction in population | effect on dispersed planktonic bacteria ([1]; 128 μg/mL): further decrease in viable planktonic bacterial cells | effect on dispersed planktonic bacteria, combined treatment ([1]; with 60° C. thermal shock for 5 min): significantly reduced from the non-thermal-shocked values | decrease in viable bacteria of biofilms ([2]; 60° C. for 5 min, 64 μg/mL): 1.5 log(CFU/peg) | decrease in viable bacteria of biofilms ([2]; 60° C. for 5 min, 128 μg/mL): 2.7 log(CFU/peg) | decrease in viable bacteria of biofilms ([2]; 70° C. for 1 min, 64 μg/mL): 2.3 log(CFU/peg) | decrease in viable bacteria of biofilms ([2]; 70° C. for 1 min, 128 μg/mL): 6.0 log(CFU/peg) | effect on biofilms ([2]; any concentration, control temperature 37° C.): no effect | effect on biofilms ([2]; any concentration, in combination with 50° C. thermal treatments): no effect

tobramycin sulfate salt
effect on dispersed planktonic bacteria ([1]; 1.0, 2.0, and 4.0 μg/mL, OD 600 nm): effective against the planktonic bacteria | effect on dispersed planktonic bacteria ([1]; higher two concentrations (2.0, 4.0 μg/mL), regardless of thermal shock): killing off almost all the free-swimming bacteria | effect of combined thermal shock and antibiotic on biofilm ([2]; 50° C. for 30 min, 60° C. for 5 min, and 70° C. for 1 min): larger than either treatment by itself | trend of biofilm mitigation with thermal exposure time ([2]; all non-zero concentrations, regardless of temperature (not at 37° C. control)): prolonged thermal exposure time increasing the overall efficacy of biofilm mitigation | effect on biofilm populations [2]: significantly reduce biofilm populations
